According to patent US20250120981A1, “MRTX1133 PHARMACEUTICAL COMPOSITIONS” (MIRATI THERAPEUTICS, INC., priority 2023, published 2025):
Where two headings read alike, the source gives them in different places.

Experiment: Pharmacokinetics in humans, MRTX1133 formulation, oral, single and multiple doses
Assay type: in vivo
Details: for increase in the mean exposure: dose increased from 200 mg BID to 400 mg BID; for Cmax: read-out: Cmax, Geo Mean; for Tmax: median of subjects (footnote b), read-out: Tmax, Median
Experimental: The pharmacokinetics [PK] of the MRTX1133 formulation after oral administration has been evaluated in 25 subjects across 3 escalating dose frequencies under fasting conditions (200 mg twice daily [BID], 400 mg BID, and 800 mg BID), as well as evaluation of 400 mg BID when administered with a low-fat meal (i.e., under fed conditions). The mean (+standard deviation) single-dose and multiple-dose pharmacokinetic profiles of the evaluated doses are presented in FIG. 9 and FIG. 10, respectively. Individual single- and multiple-dose PK profiles can be found in FIG. 11. For all figures, the X-axis represents nominal time of sample collection (hours [h]) and the Y-axis represents plasma concentration (ng/mL). Table 10 lists PK data following the oral administration of a single dose and multiple doses of MRTX1133 formulation by dose level and subject.

[1] = human, plasma, po, 200 mg, multiple oral doses of 200 mg BID, fasted, mean of subjects, read-out: Plasma concentration, Mean
[2] = human, plasma, po, 200 mg, single oral dose of 200 mg, fasted, mean of subjects, read-out: Plasma concentration, Mean
[3] = human, plasma, po, 400 mg, multiple oral doses of 400 mg BID with a low-fat meal, mean of subjects, read-out: Plasma concentration, Mean
[4] = human, plasma, po, 400 mg, multiple oral doses of 400 mg BID, fasted, mean of subjects, read-out: Plasma concentration, Mean

In the case of `C#Cc1c(F)ccc2cc(O)cc(-c3ncc4c(N5C[C@H]6CC[C@@H](C5)N6)nc(OC[C@@]56CCCN5C[C@H](F)C6)nc4c3F)c12` [MRTX1133, 4-(4-((1R,5S)-3,8-diazabicyclo[3.2.1]octan-3-yl)-8-fluoro-2-(((2R,7aS)-2-fluorohexahydro-1Hpyrrolizin-7a-yl)methoxy)pyrido[4,3-d]pyrimidin-7-yl)-5-ethynyl-6-fluoronaphthalen-2-ol], the “increase in the mean exposure” value (fasted, multiple doses) is reported as roughly 4.4 fold, the “increase in the mean exposure” value (fasted, single dose) is reported as “approximately 1.8 fold” and the “change of mean single- and multiple-dose exposure” value (dose increased from 400 mg BID to 800 mg BID, fasted) is reported as “did not change in a clinically meaningful manner”. It also gave a concentration at 0 h [1] of 5.33 ng/mL, a concentration at 0.5 h [1] of 28.1 ng/mL and a concentration at 1 h [1] of 31.1 ng/mL. It also gave a concentration at 1.5 h [1] of 33.1 ng/mL, a concentration at 2 h [1] of 20.1 ng/mL and a concentration at 4 h [1] of 6.62 ng/mL. The concentration at 6 h [1] was 3.85 ng/mL, the concentration at 8 h [1] was 2.79 ng/mL and the concentration at 12 h [1] was 2.46 ng/mL. It also gave a concentration at 24 h (human, plasma, po, 200 mg, multiple oral doses of 200 mg BID, fasted, individual subjects, sample taken after PM dose, read-out: Plasma concentration) of 0.73 ng/mL, an AUC(0-t) (human, plasma, po, 200 mg, multiple oral doses of 200 mg BID, fasted, geometric mean of subjects, read-out: AUC0-12, Geo Mean) of 93.1 ng·h/mL and an AUC(0-t) (human, plasma, po, 200 mg, multiple oral doses of 200 mg BID, fasted, geometric mean of subjects, read-out: AUC0-last, Geo Mean) of 75.2 ng·h/mL. It also gave a Cmax (human, plasma, po, 200 mg, multiple oral doses of 200 mg BID, fasted, geometric mean of subjects) of 36 ng/mL, a Tmax (human, plasma, po, 200 mg, multiple oral doses of 200 mg BID, fasted) of 1.5 h and a concentration at 0.5 h [2] of 11.1 ng/mL. The concentration at 1 h [2] was 44.3 ng/mL, the concentration at 1.5 h [2] was 39 ng/mL and the concentration at 2 h [2] was 39.3 ng/mL. For the same compound, the concentration at 4 h [2] was 30.4 ng/mL, the concentration at 6 h [2] was 11.9 ng/mL and the concentration at 8 h [2] was 6.58 ng/mL. It also gave a concentration at 12 h [2] of 4.44 ng/mL, a concentration at 24 h [2] of 0.521 ng/mL and an AUC(0-t) (human, plasma, po, 200 mg, single oral dose of 200 mg, fasted, geometric mean of subjects, read-out: AUC0-12, Geo Mean) of 148 ng·h/mL. It also gave an AUC0-inf (human, plasma, po, 200 mg, single oral dose of 200 mg, fasted, geometric mean of subjects, read-out: AUC0-inf, Geo Mean) of 165 ng·h/mL, an AUC(0-t) (human, plasma, po, 200 mg, single oral dose of 200 mg, fasted, geometric mean of subjects, read-out: AUC0-last, Geo Mean) of 151 ng·h/mL and a Cmax (human, plasma, po, 200 mg, single oral dose of 200 mg, fasted, geometric mean of subjects) of 59.8 ng/mL. For the same compound, the Tmax (human, plasma, po, 200 mg, single oral dose of 200 mg, fasted) was 1.5 h, the concentration at 0 h [3] was 16.7 ng/mL and the concentration at 1 h [3] was 138 ng/mL. The concentration at 2 h [3] was 66.7 ng/mL, the concentration at 3 h (human, plasma, po, 400 mg, multiple oral doses of 400 mg BID with a low-fat meal, 3 h, mean of subjects) was 55.1 ng/mL and the concentration at 4 h [3] was 100 ng/mL. For the same compound, the concentration at 5 h (human, plasma, po, 400 mg, multiple oral doses of 400 mg BID with a low-fat meal, 5 h, mean of subjects) was 39.8 ng/mL, the concentration at 6 h [3] was 30 ng/mL and the concentration at 8 h [3] was 23 ng/mL. The concentration at 12 h [3] was 17.3 ng/mL, the AUC(0-t) (human, plasma, po, 400 mg, multiple oral doses of 400 mg BID with a low-fat meal, geometric mean of subjects, read-out: AUC0-12, Geo Mean) was 310 ng·h/mL and the AUC(0-t) (human, plasma, po, 400 mg, multiple oral doses of 400 mg BID with a low-fat meal, geometric mean of subjects, read-out: AUC0-last, Geo Mean) was 310 ng·h/mL. For the same compound, the Cmax (human, plasma, po, 400 mg, multiple oral doses of 400 mg BID with a low-fat meal, geometric mean of subjects) was 102 ng/mL, the Tmax (human, plasma, po, 400 mg, multiple oral doses of 400 mg BID with a low-fat meal) was 1 h and the concentration at 0 h [4] was 19.4 ng/mL. For the same compound, the concentration at 0.5 h [4] was 72.7 ng/mL, the concentration at 1 h [4] was 85.9 ng/mL and the concentration at 1.5 h [4] was 64.6 ng/mL. It also gave a concentration at 2 h [4] of 48.5 ng/mL, a concentration at 4 h [4] of 77.3 ng/mL and a concentration at 6 h [4] of 63.4 ng/mL. The concentration at 8 h [4] was 40.3 ng/mL, the concentration at 12 h [4] was 27.8 ng/mL and the AUC(0-t) (human, plasma, po, 400 mg, multiple oral doses of 400 mg BID, fasted, geometric mean of subjects, read-out: AUC0-12, Geo Mean) was 410 ng·h/mL. The AUC(0-t) (human, plasma, po, 400 mg, multiple oral doses of 400 mg BID, fasted, geometric mean of subjects, read-out: AUC0-last, Geo Mean) was 410 ng·h/mL, the Cmax (human, plasma, po, 400 mg, multiple oral doses of 400 mg BID, fasted, geometric mean of subjects) was 111 ng/mL and the Tmax (human, plasma, po, 400 mg, multiple oral doses of 400 mg BID, fasted) was 1 h. It also gave a concentration at 1 h (human, plasma, po, 400 mg, single oral dose of 400 mg with a low-fat meal, mean of subjects, read-out: Plasma concentration, Mean) of 46.7 ng/mL.
